This note sets out measurements from PMC5148701 (Journal of medicinal chemistry, 2016).

For one assay, the target named is T1, D4R (Homo sapiens, UniProt P21917).
T1 sequence (P21917 1-419): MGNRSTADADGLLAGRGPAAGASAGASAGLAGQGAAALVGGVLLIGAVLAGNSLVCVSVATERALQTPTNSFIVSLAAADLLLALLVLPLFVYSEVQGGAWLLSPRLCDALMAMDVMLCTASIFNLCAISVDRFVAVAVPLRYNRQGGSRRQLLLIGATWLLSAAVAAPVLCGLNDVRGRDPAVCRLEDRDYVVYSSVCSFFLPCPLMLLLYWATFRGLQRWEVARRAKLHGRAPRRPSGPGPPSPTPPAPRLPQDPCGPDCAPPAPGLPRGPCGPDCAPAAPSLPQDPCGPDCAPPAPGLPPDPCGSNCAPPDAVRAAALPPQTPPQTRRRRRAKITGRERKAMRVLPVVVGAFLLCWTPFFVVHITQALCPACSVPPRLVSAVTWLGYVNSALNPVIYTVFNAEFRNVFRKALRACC
Briefly: Radioligand binding, D4R.

For the next assay, the target named is 5-HT2A (Homo sapiens, UniProt P28223). Briefly: Radioligand binding, 5-HT2A.
Chain of 5-HT2A (P28223 whole entry, species assumed): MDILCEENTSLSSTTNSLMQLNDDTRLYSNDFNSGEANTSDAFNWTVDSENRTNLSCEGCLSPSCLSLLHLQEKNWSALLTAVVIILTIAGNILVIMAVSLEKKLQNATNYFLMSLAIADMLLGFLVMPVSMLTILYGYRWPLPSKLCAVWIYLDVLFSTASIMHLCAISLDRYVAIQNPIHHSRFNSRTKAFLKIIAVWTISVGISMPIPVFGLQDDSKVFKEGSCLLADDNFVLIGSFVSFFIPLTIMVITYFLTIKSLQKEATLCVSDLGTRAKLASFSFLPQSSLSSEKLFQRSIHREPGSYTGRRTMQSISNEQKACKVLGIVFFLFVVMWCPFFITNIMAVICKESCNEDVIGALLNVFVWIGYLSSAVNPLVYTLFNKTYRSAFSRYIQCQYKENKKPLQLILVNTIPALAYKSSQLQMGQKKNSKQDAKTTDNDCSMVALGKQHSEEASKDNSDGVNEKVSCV
The next assay has as its target hD2L receptors (Homo sapiens, UniProt P14416). Briefly: D2R Gi/o-mediated cAMP inhibition assay. Format: cell-based. The settings on record: normalized to maximum cAMP inhibition by quinpirole (100%).
A further assay has as its target 5-HT1B (Homo sapiens, UniProt P28222). Briefly: Radioligand binding, 5-HT1B.
For a further assay, the target named is 5-HT5A (Homo sapiens, UniProt P47898). Briefly: Radioligand binding, 5-HT5A.
Chain of 5-HT5A (P47898 whole entry, species assumed): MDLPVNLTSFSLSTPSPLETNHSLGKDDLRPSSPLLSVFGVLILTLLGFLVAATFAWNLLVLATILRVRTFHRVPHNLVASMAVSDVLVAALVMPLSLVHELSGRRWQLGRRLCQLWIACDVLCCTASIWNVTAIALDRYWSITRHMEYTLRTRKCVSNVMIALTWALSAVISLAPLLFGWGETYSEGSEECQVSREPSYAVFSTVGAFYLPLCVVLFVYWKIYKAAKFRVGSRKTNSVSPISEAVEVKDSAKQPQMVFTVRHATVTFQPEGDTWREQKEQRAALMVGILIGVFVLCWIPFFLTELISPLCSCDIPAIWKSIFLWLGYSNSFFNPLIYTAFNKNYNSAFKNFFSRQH
Another assay deals with T2, 5-HT1A (Homo sapiens, UniProt P08908).
T2 sequence (P08908 1-422): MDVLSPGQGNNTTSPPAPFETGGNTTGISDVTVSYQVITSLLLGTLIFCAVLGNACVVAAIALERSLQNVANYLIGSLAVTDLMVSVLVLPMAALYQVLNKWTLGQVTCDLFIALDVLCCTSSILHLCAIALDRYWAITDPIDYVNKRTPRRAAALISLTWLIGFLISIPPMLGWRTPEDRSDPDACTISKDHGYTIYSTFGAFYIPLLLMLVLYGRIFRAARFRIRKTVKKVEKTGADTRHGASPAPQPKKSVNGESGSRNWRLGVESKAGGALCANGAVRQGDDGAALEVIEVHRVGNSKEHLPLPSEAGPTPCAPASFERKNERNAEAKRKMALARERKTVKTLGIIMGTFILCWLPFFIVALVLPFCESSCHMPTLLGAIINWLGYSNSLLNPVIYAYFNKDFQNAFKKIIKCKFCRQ
Briefly: Radioligand binding, 5-HT1A. The settings on record: Binding affinity Ki (nM), 5-HT1A.

Another assay has as its target D5R (Homo sapiens, UniProt P21918). Briefly: Radioligand binding, D5R.
A further assay addresses D2L receptors (Homo sapiens, UniProt P14416). Briefly: D2R β-arrestin-2 recruitment Tango assay. Format: cell-based. The settings on record: HTLA, read-out: β-arrestin Emax (%).
A further assay has as its target 5-HT1D (Homo sapiens, UniProt P28221). Briefly: Radioligand binding, 5-HT1D.
A further assay has as its target D3R (Homo sapiens, UniProt P35462). Briefly: Radioligand binding, D3R.
Another assay deals with D1R (Homo sapiens, UniProt P21728). Briefly: Radioligand binding, D1R.
Chain of D1R (P21728 whole entry): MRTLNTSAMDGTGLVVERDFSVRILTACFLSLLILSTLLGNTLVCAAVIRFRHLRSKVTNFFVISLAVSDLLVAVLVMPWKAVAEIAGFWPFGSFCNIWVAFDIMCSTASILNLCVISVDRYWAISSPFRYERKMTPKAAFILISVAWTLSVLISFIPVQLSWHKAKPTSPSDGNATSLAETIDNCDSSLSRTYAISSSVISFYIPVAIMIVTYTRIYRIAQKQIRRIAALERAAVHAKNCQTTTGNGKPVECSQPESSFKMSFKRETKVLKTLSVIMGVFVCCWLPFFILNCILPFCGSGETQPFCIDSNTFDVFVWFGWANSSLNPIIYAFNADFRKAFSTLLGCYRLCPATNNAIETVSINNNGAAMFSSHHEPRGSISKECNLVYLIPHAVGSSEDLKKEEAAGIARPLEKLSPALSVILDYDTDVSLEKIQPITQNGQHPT
In the next assay the target is D2R (Homo sapiens, UniProt P14416). Briefly: Radioligand binding, D2R.
Chain of D2R (P14416 whole entry): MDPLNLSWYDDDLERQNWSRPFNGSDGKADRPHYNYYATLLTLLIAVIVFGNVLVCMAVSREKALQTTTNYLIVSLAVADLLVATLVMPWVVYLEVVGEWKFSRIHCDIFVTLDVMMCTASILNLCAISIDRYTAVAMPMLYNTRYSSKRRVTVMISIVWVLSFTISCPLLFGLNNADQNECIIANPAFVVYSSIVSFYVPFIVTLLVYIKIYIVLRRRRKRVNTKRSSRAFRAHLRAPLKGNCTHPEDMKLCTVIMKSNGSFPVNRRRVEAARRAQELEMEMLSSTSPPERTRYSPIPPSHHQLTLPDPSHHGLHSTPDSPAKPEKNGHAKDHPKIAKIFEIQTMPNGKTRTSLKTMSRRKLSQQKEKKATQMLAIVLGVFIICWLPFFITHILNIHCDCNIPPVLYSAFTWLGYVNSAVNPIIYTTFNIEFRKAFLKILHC
The target of a further assay is mouse D2Long (Mus musculus, UniProt P61168). Briefly: BRET β-arrestin-2 recruitment assay with GRK2 co-expression. Format: cell-based. The settings on record: up to 1 µM; GRK2 co-expressed.
Chain of mouse D2Long (P61168 whole entry): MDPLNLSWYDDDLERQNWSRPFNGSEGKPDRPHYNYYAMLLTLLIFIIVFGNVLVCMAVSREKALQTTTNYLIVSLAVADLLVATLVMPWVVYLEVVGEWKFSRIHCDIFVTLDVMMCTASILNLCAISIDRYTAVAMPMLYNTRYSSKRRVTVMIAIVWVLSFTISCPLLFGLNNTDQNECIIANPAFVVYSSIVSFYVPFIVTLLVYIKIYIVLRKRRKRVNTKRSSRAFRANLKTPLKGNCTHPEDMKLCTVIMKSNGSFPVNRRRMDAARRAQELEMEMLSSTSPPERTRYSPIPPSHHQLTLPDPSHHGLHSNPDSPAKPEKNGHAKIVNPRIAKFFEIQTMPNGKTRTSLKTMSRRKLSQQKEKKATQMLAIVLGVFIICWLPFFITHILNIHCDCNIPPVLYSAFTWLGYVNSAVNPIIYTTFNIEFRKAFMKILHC
The target of the next assay is T3, 5-HT2C (Homo sapiens, UniProt P28335).
T3 sequence (P28335 33-458): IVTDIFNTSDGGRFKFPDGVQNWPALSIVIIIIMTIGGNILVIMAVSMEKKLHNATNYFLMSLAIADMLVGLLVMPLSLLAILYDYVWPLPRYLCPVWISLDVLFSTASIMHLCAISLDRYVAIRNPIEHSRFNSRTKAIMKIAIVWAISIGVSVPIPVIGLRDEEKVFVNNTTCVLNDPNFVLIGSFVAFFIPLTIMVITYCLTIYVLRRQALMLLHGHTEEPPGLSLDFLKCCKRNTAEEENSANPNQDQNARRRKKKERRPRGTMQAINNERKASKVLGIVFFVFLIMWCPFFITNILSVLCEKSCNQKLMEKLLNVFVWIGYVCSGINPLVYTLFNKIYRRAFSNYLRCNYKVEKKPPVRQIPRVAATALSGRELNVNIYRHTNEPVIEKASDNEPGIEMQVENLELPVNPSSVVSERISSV
Briefly: Radioligand binding, 5-HT2C.

For the next assay, the target named is H2-histamine receptor (Homo sapiens, UniProt P25021). Briefly: Radioligand binding, H2.
Chain of H2-histamine receptor (P25021 whole entry): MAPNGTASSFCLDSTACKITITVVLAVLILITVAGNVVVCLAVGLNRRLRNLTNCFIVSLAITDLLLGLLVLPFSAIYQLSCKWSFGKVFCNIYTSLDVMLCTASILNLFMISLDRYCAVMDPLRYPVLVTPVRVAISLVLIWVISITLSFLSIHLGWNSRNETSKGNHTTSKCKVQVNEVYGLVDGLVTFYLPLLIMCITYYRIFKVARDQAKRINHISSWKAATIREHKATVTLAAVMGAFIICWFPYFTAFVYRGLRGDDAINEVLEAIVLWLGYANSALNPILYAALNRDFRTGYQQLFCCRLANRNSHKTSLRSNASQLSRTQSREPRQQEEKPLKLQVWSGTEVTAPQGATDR
In another assay the target is 5-HT7 (Homo sapiens, UniProt P34969). Briefly: Radioligand binding, 5-HT7.
Chain of 5-HT7 (P34969 whole entry, species assumed): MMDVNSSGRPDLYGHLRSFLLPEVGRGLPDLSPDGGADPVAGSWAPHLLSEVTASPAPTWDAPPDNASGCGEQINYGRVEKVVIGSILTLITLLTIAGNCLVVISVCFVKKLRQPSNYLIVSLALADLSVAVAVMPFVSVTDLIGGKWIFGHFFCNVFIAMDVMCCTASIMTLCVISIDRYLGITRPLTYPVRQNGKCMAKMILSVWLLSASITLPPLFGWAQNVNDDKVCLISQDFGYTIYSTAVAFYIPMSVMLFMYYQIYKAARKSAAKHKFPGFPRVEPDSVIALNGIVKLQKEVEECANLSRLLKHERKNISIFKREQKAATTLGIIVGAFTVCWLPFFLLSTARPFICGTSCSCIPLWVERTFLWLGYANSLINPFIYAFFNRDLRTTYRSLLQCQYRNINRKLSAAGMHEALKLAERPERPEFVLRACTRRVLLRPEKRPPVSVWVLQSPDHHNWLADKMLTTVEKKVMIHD

Entries after “also recorded” stand apart in the source; their conditions may differ.

Chain of hD2L receptors (P14416 whole entry): as the sequence (P14416 whole entry) above
Chain of D3R (P35462 whole entry): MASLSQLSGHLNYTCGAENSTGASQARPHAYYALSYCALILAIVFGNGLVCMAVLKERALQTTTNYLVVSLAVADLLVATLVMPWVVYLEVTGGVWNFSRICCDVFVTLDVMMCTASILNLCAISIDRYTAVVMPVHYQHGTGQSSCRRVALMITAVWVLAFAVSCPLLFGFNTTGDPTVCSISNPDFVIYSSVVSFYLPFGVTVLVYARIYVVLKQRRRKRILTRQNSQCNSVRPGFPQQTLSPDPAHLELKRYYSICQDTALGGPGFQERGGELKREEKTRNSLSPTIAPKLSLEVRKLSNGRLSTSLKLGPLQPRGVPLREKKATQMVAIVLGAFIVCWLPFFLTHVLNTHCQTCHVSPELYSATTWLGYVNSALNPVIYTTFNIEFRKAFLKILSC
Chain of 5-HT1D (P28221 whole entry, species assumed): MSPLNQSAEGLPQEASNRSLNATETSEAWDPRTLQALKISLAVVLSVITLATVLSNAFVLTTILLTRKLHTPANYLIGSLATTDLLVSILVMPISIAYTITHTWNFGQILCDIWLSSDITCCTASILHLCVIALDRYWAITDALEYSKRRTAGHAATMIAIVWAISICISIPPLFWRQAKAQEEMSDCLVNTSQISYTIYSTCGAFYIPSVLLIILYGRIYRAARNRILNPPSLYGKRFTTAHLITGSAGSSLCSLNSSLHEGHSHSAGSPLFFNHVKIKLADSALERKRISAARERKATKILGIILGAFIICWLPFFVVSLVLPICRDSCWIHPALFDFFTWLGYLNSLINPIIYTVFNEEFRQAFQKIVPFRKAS
Chain of D2L receptors (P14416 whole entry): as the sequence (P14416 whole entry) above
Chain of D5R (P21918 whole entry): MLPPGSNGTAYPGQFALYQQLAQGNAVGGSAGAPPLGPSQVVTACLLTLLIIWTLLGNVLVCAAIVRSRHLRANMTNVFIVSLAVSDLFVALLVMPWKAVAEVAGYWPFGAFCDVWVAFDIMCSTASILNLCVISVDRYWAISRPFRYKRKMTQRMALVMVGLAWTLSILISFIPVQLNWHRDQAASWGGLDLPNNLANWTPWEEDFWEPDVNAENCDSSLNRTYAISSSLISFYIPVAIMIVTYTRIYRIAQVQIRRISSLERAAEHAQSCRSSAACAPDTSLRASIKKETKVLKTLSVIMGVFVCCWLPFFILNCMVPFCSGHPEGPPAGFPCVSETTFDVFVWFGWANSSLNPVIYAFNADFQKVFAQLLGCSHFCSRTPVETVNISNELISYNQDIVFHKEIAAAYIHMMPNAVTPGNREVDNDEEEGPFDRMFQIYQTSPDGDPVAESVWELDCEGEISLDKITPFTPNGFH
Chain of 5-HT1B (P28222 whole entry, species assumed): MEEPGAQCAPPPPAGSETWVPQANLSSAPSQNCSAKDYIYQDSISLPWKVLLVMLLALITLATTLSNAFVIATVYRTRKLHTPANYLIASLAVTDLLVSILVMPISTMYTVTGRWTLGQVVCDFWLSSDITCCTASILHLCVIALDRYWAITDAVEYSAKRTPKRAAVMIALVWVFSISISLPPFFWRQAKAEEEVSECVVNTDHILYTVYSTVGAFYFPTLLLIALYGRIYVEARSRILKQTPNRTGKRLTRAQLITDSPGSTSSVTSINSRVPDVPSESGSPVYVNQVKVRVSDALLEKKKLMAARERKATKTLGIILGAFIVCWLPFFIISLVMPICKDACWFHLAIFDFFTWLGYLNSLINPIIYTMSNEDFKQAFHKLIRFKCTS

For `Cc1ccc2cccc(N3CCN(CCCCOc4ccc5sc(C(C)C)nc5c4)CC3)c2n1` [Compound 49, 2-Isopropyl-5-(4-(4-(2-methylquinolin-8-yl)piperazin-1-yl)butoxy)benzo[d]thiazole], the Ki was found to be 7100 nM at D4R; 110 nM on 5-HT2A; 1600 nM on 5-HT1B; 1400 nM at 5-HT5A; 14 nM on 5-HT1A; 1500 nM at D5R. Further, the Ki at 5-HT1D came out at 94 nM; at D3R, 64 nM; on D1R, 2000 nM; on D2R it was 45 nM; at 5-HT2C, 140 nM; at H2-histamine receptor, 430 nM. On 5-HT7, this molecule displayed a Ki of 69 nM. Moreover, the “cAMP Emax (%)” value on hD2L receptors (HEK293T cells, GloSensor-22F) stood at 32%. The Emax on hD2L receptors (HEK-293T, read-out: cAMP Emax (%), HEK293T cells, GloSensor-22F) is 30 to 40%; on D2L receptors, under 20%. Moreover, the “β-arrestin-2 recruitment agonist activity in BRET assay” value at mouse D2Long is listed as “not active; also recorded: no β-arrestin recruitment”.
